Numbers after ± are expanded uncertainties.
Assay: xn = mol fraction of the nth substance listed
Conditions: 101 kPa, Liquid, Voltage change across transformer (no electrode)

CCCC[n+]1ccc(C)cc1.F[B-](F)(F)F [1-butyl-4-methylpyridinium tetrafluoroborate] + CO
electrical conductivity [S/m]
Conditions	293.15 K	303.15 K	313.15 K	323.15 K
x1 = 0.0426	2.81 ± 0.11	3.25 ± 0.13	3.55 ± 0.14	4.09 ± 0.16
x1 = 0.0499	2.99 ± 0.12	3.46 ± 0.14	3.93 ± 0.16	4.37 ± 0.18
x1 = 0.0584	3.18 ± 0.13	3.71 ± 0.15	4.17 ± 0.17	4.65 ± 0.19
x1 = 0.0716	3.38 ± 0.14	3.99 ± 0.16	4.56 ± 0.18	5.02 ± 0.2
x1 = 0.0898	3.58 ± 0.14	4.25 ± 0.17	4.82 ± 0.19	5.4 ± 0.22
x1 = 0.1093	3.72 ± 0.15	4.43 ± 0.18	5.08 ± 0.2	5.67 ± 0.23
x1 = 0.1256	3.76 ± 0.15	4.52 ± 0.18	5.2 ± 0.21	5.82 ± 0.23
x1 = 0.1425	3.78 ± 0.15	4.56 ± 0.18	5.27 ± 0.21	5.92 ± 0.24
x1 = 0.2197	3.47 ± 0.14	4.38 ± 0.18	5.15 ± 0.21	5.85 ± 0.23
x1 = 0.2475	3.31 ± 0.13	4.22 ± 0.17	5 ± 0.2	5.7 ± 0.23
x1 = 0.305	3.13 ± 0.13	3.84 ± 0.15	4.61 ± 0.18	5.27 ± 0.21
x1 = 0.3465	2.81 ± 0.11	3.53 ± 0.14	4.27 ± 0.17	4.9 ± 0.2
x1 = 0.4593	2.18 ± 0.09	2.68 ± 0.11	3.3 ± 0.13	3.83 ± 0.15
x1 = 0.5657	1.42 ± 0.057	1.93 ± 0.077	2.47 ± 0.1	2.85 ± 0.11
x1 = 0.6744	0.993 ± 0.04	1.28 ± 0.051	1.71 ± 0.07	1.99 ± 0.08
x1 = 0.7908	0.565 ± 0.023	0.761 ± 0.03	1.12 ± 0.045	1.29 ± 0.051
x1 = 0.8788	0.341 ± 0.014	0.487 ± 0.019	0.78 ± 0.031	0.925 ± 0.037
x1 = 1	0.132 ± 0.0053	0.254 ± 0.01	0.439 ± 0.018	0.687 ± 0.027

CCCC[n+]1cccc(C)c1.F[B-](F)(F)F [1-butyl-3-methylpyridinium tetrafluoroborate] + CCO
electrical conductivity [S/m]
Conditions	293.15 K	303.15 K	313.15 K	323.15 K
x1 = 0.0613	0.787 ± 0.032	1.02 ± 0.041	1.26 ± 0.05	1.53 ± 0.061
x1 = 0.0737	0.888 ± 0.036	1.14 ± 0.046	1.42 ± 0.057	1.72 ± 0.069
x1 = 0.0915	1.02 ± 0.041	1.31 ± 0.053	1.63 ± 0.065	1.96 ± 0.078
x1 = 0.1113	1.14 ± 0.046	1.48 ± 0.059	1.84 ± 0.074	2.19 ± 0.09
x1 = 0.1366	1.24 ± 0.05	1.63 ± 0.065	2.04 ± 0.08	2.43 ± 0.1
x1 = 0.167	1.4 ± 0.056	1.81 ± 0.073	2.22 ± 0.09	2.68 ± 0.11
x1 = 0.1985	1.47 ± 0.059	1.92 ± 0.077	2.36 ± 0.09	2.81 ± 0.11
x1 = 0.2393	1.52 ± 0.061	1.97 ± 0.079	2.4 ± 0.1	2.89 ± 0.12
x1 = 0.2811	1.5 ± 0.06	1.96 ± 0.079	2.4 ± 0.1	2.89 ± 0.12
x1 = 0.3174	1.41 ± 0.056	1.85 ± 0.074	2.31 ± 0.09	2.85 ± 0.11
x1 = 0.3652	1.32 ± 0.053	1.76 ± 0.07	2.24 ± 0.09	2.76 ± 0.11
x1 = 0.4385	1.19 ± 0.048	1.61 ± 0.064	2.11 ± 0.08	2.54 ± 0.1
x1 = 0.4652	1.09 ± 0.044	1.49 ± 0.059	1.92 ± 0.077	2.45 ± 0.1
x1 = 0.5281	0.934 ± 0.037	1.28 ± 0.051	1.68 ± 0.067	2.21 ± 0.09
x1 = 0.5747	0.823 ± 0.033	1.17 ± 0.047	1.56 ± 0.063	2.04 ± 0.08
x1 = 0.6938	0.51 ± 0.02	0.77 ± 0.031	1.15 ± 0.046	1.63 ± 0.065
x1 = 0.7799	0.37 ± 0.015	0.56 ± 0.022	0.891 ± 0.036	1.33 ± 0.053
x1 = 0.9102	0.215 ± 0.009	0.36 ± 0.014	0.59 ± 0.024	0.903 ± 0.036
x1 = 1	0.155 ± 0.0062	0.281 ± 0.011	0.461 ± 0.018	0.704 ± 0.028

CCCC[n+]1cccc(C)c1.F[B-](F)(F)F [1-butyl-3-methylpyridinium tetrafluoroborate] + CO
electrical conductivity [S/m]
Conditions	293.15 K	303.15 K	313.15 K	323.15 K
x1 = 0.0337	2.29 ± 0.09	2.71 ± 0.11	3.11 ± 0.12	3.5 ± 0.14
x1 = 0.0438	2.45 ± 0.1	2.89 ± 0.12	3.34 ± 0.13	3.8 ± 0.15
x1 = 0.0479	2.66 ± 0.11	3.12 ± 0.13	3.6 ± 0.14	4.09 ± 0.16
x1 = 0.0567	2.9 ± 0.12	3.41 ± 0.14	3.96 ± 0.16	4.53 ± 0.18
x1 = 0.0699	3.17 ± 0.13	3.85 ± 0.15	4.49 ± 0.18	5.1 ± 0.2
x1 = 0.1142	3.33 ± 0.13	3.98 ± 0.16	4.66 ± 0.19	5.38 ± 0.22
x1 = 0.1504	3.37 ± 0.13	4.06 ± 0.16	4.74 ± 0.19	5.5 ± 0.22
x1 = 0.1734	3.31 ± 0.13	4.01 ± 0.16	4.74 ± 0.19	5.52 ± 0.22
x1 = 0.2236	3.11 ± 0.12	3.8 ± 0.15	4.55 ± 0.18	5.34 ± 0.21
x1 = 0.2696	2.78 ± 0.11	3.44 ± 0.14	4.15 ± 0.17	4.89 ± 0.2
x1 = 0.3345	2.43 ± 0.1	3.08 ± 0.12	3.77 ± 0.15	4.49 ± 0.18
x1 = 0.378	2.19 ± 0.09	2.8 ± 0.11	3.45 ± 0.14	4.11 ± 0.16
x1 = 0.4258	1.76 ± 0.07	2.31 ± 0.09	2.95 ± 0.12	3.59 ± 0.14
x1 = 0.5198	1.3 ± 0.052	1.82 ± 0.073	2.3 ± 0.09	2.87 ± 0.11
x1 = 0.61	0.944 ± 0.038	1.32 ± 0.053	1.78 ± 0.071	2.27 ± 0.09
x1 = 0.729	0.472 ± 0.019	0.686 ± 0.027	1.04 ± 0.042	1.58 ± 0.063
x1 = 0.8344	0.28 ± 0.011	0.413 ± 0.017	0.672 ± 0.027	1.05 ± 0.042
x1 = 0.9177	0.191 ± 0.0076	0.311 ± 0.012	0.523 ± 0.021	0.817 ± 0.033
x1 = 1	0.155 ± 0.0062	0.281 ± 0.011	0.461 ± 0.018	0.704 ± 0.028
